Assay results as given in article PMC9146377, “Design and Synthesis of Novel Bis-Imidazolyl Phenyl Butadiyne Derivatives as HCV NS5A Inhibitors” (Pharmaceuticals, 2022).
Read-outs that look alike come from different tables or passages of the source.

Columns and labels:
[1] = Phase I and phase II metabolic stability in human liver S9 fractions; assay type: in vitro ADME; settings: LC-MS/MS, read-out: half-life time (t½)
Method: This was done using human liver S9 fractions, following the previously reported protocol. A number of samples were taken at defined time points, and using LC-MS/MS, the remaining percentage of the parent compound was determined.

[2] = system: (+) strand HCV RNA, Con1 (GT 1b) subgenomic replicon; test: RT-qPCR quantification of HCV RNA in Huh5-2 replicon cells; assay type: cell-based, Hepatitis C virus; settings: normalized to YWHAZ
Method: (§1) The potency of compound 10a measured by the luciferase assay in HCV GT 1b was confirmed at the level of viral RNA and NS5A protein expression. Huh5-2 replicon cells were treated with 10a in serial dilutions, or its solvent DMSO (control), and viral RNA was quantified by reverse transcription-quantitative polymerase chain reaction (RT-qPCR). NS5A protein levels were evaluated by indirect immunofluorescence combined with confocal microscopy analysis. […] Nuclei were stained with propidium iodide (PI) as a cell viability control.
Extraction of total RNA from Huh5-2 cells was performed using TRIzol reagent (Ambion, Austin, TX, USA), according to the manufacturer’s instructions. Replicon RNA was quantified with reverse transcription (RT) and quantitative real-time polymerase chain reaction (qPCR). RT was performed using a Con1 IRES-specific primer (IRES-R: 5′-[…]-3′) and Moloney Murine Leukemia Virus (MMLV) reverse transcriptase (Promega). […]
Figure 6 Inhibition of HCV RNA and protein expression levels exerted by compound 10a in HCV Con1 (GT 1b) subgenomic replicon cell line. […] Values are expressed as a percentage of those obtained from cells treated with the solvent (control). […]

[3] = system: NS5A protein expression, HCV Con1 (GT 1b); test: Indirect immunofluorescence for NS5A in Huh5-2 replicon cells; assay type: cell-based, Hepatitis C virus; settings: 10-fold serial dilutions, confocal microscopy
Method: as §1
An indirect immunofluorescence analysis of Con1 NS5A was performed as described previously. Propidium iodide (Sigma-Aldrich, St. Louis, MO, USA) was used to stain the DNA. Images were obtained with a Leica TCS-SP8 Confocal Microscope (Wetzlar, Germany).
Figure 6 Inhibition of HCV RNA and protein expression levels exerted by compound 10a in HCV Con1 (GT 1b) subgenomic replicon cell line. (A) RT-qPCR analysis of (+) strand HCV RNA levels in Huh5-2 replicon cells treated with 10-fold serial dilutions of compound 10a or the solvent DMSO. Values are expressed as a percentage of those obtained from cells treated with the solvent (control). The housekeeping gene YWHAZ (tyrosine 3-monooxygenase/tryptophan 5-monooxygenase activation protein zeta) was used as a normalization control. […]

[4] = system: subgenomic replicon of HCV GT 2a (strain JFH1); test: Anti-HCV luciferase assay, genotype 2a replicon in Huh7-JFH1 cells; assay type: cell-based, Hepatitis C virus; settings: for EC50: Huh7-JFH1 cells
Method: Specifically, we determined the activity of 10a against viral replication by measuring luciferase activity in Huh7-JFH1, Huh7.5-3a, and Huh7.5-4a stable cell lines containing subgenomic replicons of HCV GT 2a (strain JFH1), GT 3a (strain S52) and GT 4a (strain ED43), respectively. In addition, the activity of 10a was determined in Huh7-Lunet cells electroporated with the in vitro transcribed full-length reporter viral RNA of HCV genotype 1a (strain H77S.3).
Huh5-2 [65] and Huh7-JFH1 [66] stable cell lines harbor the subgenomic HCV reporter replicon I389luc-ubi-neo/NS3-3′/Con1/5.1 (genotype 1b; strain Con1) and I389luc-ubi-neo/NS3-3′_dg_JFH1 (genotype 2a, JFH1 strain), respectively (kindly provided by R. Bartenschlager, Heidelberg University, Heidelberg, Germany). Huh7.5-3a and Huh7.5-4a stable cell lines harbor the subgenomic HCV reporter replicon S52-SG (Feo) (AII) (genotype 3a; S52 strain) and ED43-SG (Feo) (VYG) (genotype 4a; ED43 strain), respectively (viral constructs kindly provided by C.M. Rice, Rockefeller University, New York, NY, USA). […]
The anti-HCV assay in replicon cells was performed by seeding 1 × 10^4 cells per well in a 96-well plate. […] Cells were lysed after 72 h, and F-Luc activity was measured. […] At 72 h post-treatment, cell supernatants were collected, and G-Luc activity was measured. In addition, the cells were lysed for total protein quantification.
Relative luminescence units (RLU) were expressed as a percentage of the respective units derived from DMSO-treated cells (control). […]
The F-Luc activity was measured using the Luciferase Assay System (Promega, Madison, WI, USA), as recommended by the manufacturer. The G-Luc activity was measured using 12 μM coelenterazine (Promega) in assay buffer (50 mM potassium phosphate, pH 7.4, 500 mM NaCl, 1 mM EDTA). […] The F-Luc activity was normalized to the total protein amount determined using the Bradford assay reagent (Pierce, Waltham, MA, USA).

Q: Which results are given for `COC(=O)N[C@@H](C(=O)N1CCC[C@H]1c1ncc(-c2cccc(C#CC#Cc3cccc(-c4cnc([C@@H]5CCCN5C(=O)[C@H](NC(=O)OC)c5ccccc5)[nH]4)c3)c2)[nH]1)c1ccccc1` [Compound 10a, Dimethyl ((1R,1′R)-((2S,2′S)-((buta-1,3-diyne-1,4-diylbis(3,1-phenylene))bis(1H-imidazole-5,2-diyl))bis(pyrrolidine-2,1-diyl))bis(2-oxo-1-phenylethane-2,1-diyl))dicarbamate]?
A: half-life [1]: > 120 min; EC50 ([2]; Hepatitis C virus, GT1B, Huh-5-2, RT-qPCR): 0.255 nM; EC50 ([2]; RT-qPCR): 0.25 nM; NS5A protein expression [3]: reduction of NS5A expression; Gt2a SI [4]: >3567.61; EC50 ([4]; Hepatitis C virus, GT2A): 28 nM; EC50 ([4]; listed as Comp. 10a, read-out: Gt2a EC50): 28 nM
